{
  "source": "patent US20120122727A1",
  "about": "“IN VITRO METHOD FOR PREDICTING WHETHER A COMPOUND IS GENOTOXIC IN VIVO” (priority 2009, published 2012)",
  "key": {"[1]": {"system": "primary mouse hepatocytes", "assay": "Gene expression (Affymetrix Mouse Genome 430 2.0) in primary mouse hepatocytes, true vs false GTX, 24 h and 48 h", "conditions": "48 h; log2, corrected for vehicle control"}, "[2]": {"system": "primary mouse hepatocytes", "assay": "Gene expression in primary mouse hepatocytes, GTX vs non-GTX (four-gene classifier, 24 h)", "experimental": "Hepatocyte cells were incubated and exposed to a compound for 24 h before being harvested for RNA isolation.\nThe results of the gene expression analysis may then be fed into a statistical software package such as R, Splus, or Microsoft Excel. […] If none or only one of these criteria were met, no point was scored.\nFor each of the four genes mentioned in the table (1700007K13RIK, GAS2L3, SPC25, DDIT4L), a statistical comparison was made between the normalized expression data for these genes. […] If none or only one of these criteria were met, no point was scored.\nFor each compound, the sum of the scores for four genes is taken. If this score is 0, a compound can be believed not to be genotoxic. If this score is 1, 2, 3 or 4, a compound is genotoxic.\nIf none or only one of these criteria were met, no point was scored."}, "[3]": {"conditions": "24 h exposure, average of four replicates"}, "[4]": {"conditions": "log 2 ratio, 24 h exposure, concentration per Table 4"}},
  "data": [
    {"smiles": "CN(C)N=O", "note": "[DMN, Dimethylnitrosamine]", "values": [
      {"measurement": "Gene expression AK017734 average", "setting": "[1]", "result": 1.0611},
      {"measurement": "Gene expression AK018383 average", "setting": "[1]", "result": 0.8246},
      {"measurement": "Gene expression AK019979 average", "setting": "[1]", "result": "−1.11"},
      {"measurement": "Gene expression AV095209 average", "setting": "[1]", "result": "−0.454"},
      {"measurement": "Gene expression AV141095 average", "setting": "[1]", "result": "−0.8663"},
      {"measurement": "Gene expression AV173869 average", "setting": "[1]", "result": "−1.272"},
      {"measurement": "Gene expression AV216768 average", "setting": "[1]", "result": "−0.2641"},
      {"measurement": "Gene expression AV219418 average", "setting": "[1]", "result": 4.5473},
      {"measurement": "Gene expression AV221299 average", "setting": "[1]", "result": "−1.5693"},
      {"measurement": "Gene expression AV246296 average", "setting": "[1]", "result": 0.9572},
      {"measurement": "Gene expression AV251625 average", "setting": "[1]", "result": 1.246},
      {"measurement": "Gene expression AV254764 average", "setting": "[1]", "result": 1.133},
      {"measurement": "Gene expression AV327248 average", "setting": "[1]", "result": 4.023},
      {"measurement": "Gene expression BB009155 average", "setting": "[1]", "result": 2.343},
      {"measurement": "Gene expression BB027848 average", "setting": "[1]", "result": 1.191},
      {"measurement": "Gene expression BB043558 average", "setting": "[1]", "result": 2.187},
      {"measurement": "Gene expression BB046347 average", "setting": "[1]", "result": 0.7743},
      {"measurement": "Gene expression BB140436 average", "setting": "[1]", "result": "−1.281"},
      {"measurement": "Gene expression BB204486 average", "setting": "[1]", "result": "−0.3108"},
      {"measurement": "Gene expression BB223872 average", "setting": "[1]", "result": 1.694},
      {"measurement": "Gene expression BB246912 average", "setting": "[1]", "result": "−0.9806"},
      {"measurement": "Gene expression BB275142 average", "setting": "[1]", "result": 1.162},
      {"measurement": "Gene expression BB458460 average", "setting": "[1]", "result": "−0.6934"},
      {"measurement": "Gene expression BB463610 average", "setting": "[1]", "result": 1.546},
      {"measurement": "Gene expression BB730977 average", "setting": "[1]", "result": "−0.656"},
      {"measurement": "Gene expression BB743970 average", "setting": "[1]", "result": 3.154},
      {"measurement": "Gene expression BB770528 average", "setting": "[1]", "result": 1.709},
      {"measurement": "Gene expression BB781615 average", "setting": "[1]", "result": 1.487},
      {"measurement": "Gene expression BC003284 average", "setting": "[1]", "result": 1.379},
      {"measurement": "Gene expression BC004827 average", "setting": "[1]", "result": "−1.0689"},
      {"measurement": "Gene expression BC005552 average", "setting": "[1]", "result": "−0.5235"},
      {"measurement": "Gene expression BC006713 average", "setting": "[1]", "result": 1.668},
      {"measurement": "Gene expression BC010318 average", "setting": "[1]", "result": "−1.167"},
      {"measurement": "Gene expression BC012247 average", "setting": "[1]", "result": 1.67},
      {"measurement": "Gene expression BC012955 average", "setting": "[1]", "result": "−1.97"},
      {"measurement": "Gene expression BC013893 average", "setting": "[1]", "result": 0.5487},
      {"measurement": "Gene expression BC017615 average", "setting": "[1]", "result": "−2.7334"},
      {"measurement": "Gene expression BC019379 average", "setting": "[1]", "result": "−0.3602"},
      {"measurement": "Gene expression BC019882 average", "setting": "[1]", "result": 1.494},
      {"measurement": "Gene expression BC021352 average", "setting": "[1]", "result": 3.512},
      {"measurement": "Gene expression BC022148 average", "setting": "[1]", "result": 1.8449},
      {"measurement": "Gene expression BC025169 average", "setting": "[1]", "result": "−1.296"},
      {"measurement": "Gene expression BC026131 average", "setting": "[1]", "result": "−0.7571"},
      {"measurement": "Gene expression BC027026 average", "setting": "[1]", "result": 2.571},
      {"measurement": "Gene expression BC027121 average", "setting": "[1]", "result": 2.075},
      {"measurement": "Gene expression BC027185 average", "setting": "[1]", "result": 1.462},
      {"measurement": "Gene expression BE956581 average", "setting": "[1]", "result": 3.033},
      {"measurement": "Gene expression BF719766 average", "setting": "[1]", "result": 1.2016},
      {"measurement": "Gene expression BG065754 average", "setting": "[1]", "result": 0.9953},
      {"measurement": "Gene expression BG066491 average", "setting": "[1]", "result": "−0.9757"},
      {"measurement": "Gene expression BG076151 average", "setting": "[1]", "result": 1.205},
      {"measurement": "Gene expression BG076333 average", "setting": "[1]", "result": "−0.7995"},
      {"measurement": "Gene expression BG797099 average", "setting": "[1]", "result": 1.704},
      {"measurement": "Gene expression BG967046 average", "setting": "[1]", "result": 1.1973},
      {"measurement": "Gene expression BI651416 average", "setting": "[1]", "result": 1.8588},
      {"measurement": "Gene expression BI966443 average", "setting": "[1]", "result": 3.295},
      {"measurement": "Gene expression BM198879 average", "setting": "[1]", "result": 1.096},
      {"measurement": "Gene expression BM200015 average", "setting": "[1]", "result": 1.16},
      {"measurement": "Gene expression BM230508 average", "setting": "[1]", "result": 1.54},
      {"measurement": "Gene expression BM936480 average", "setting": "[1]", "result": 0.7781},
      {"measurement": "Gene expression BQ174991 average", "setting": "[1]", "result": "−0.28"},
      {"measurement": "Gene expression L21027 average", "setting": "[1]", "result": "−0.4472"},
      {"measurement": "Gene expression NM_007556 average", "setting": "[1]", "result": "−1.29"},
      {"measurement": "Gene expression NM_007980 average", "setting": "[1]", "result": 0.3252},
      {"measurement": "Gene expression NM_007987 average", "setting": "[1]", "result": 1.665},
      {"measurement": "Gene expression NM_008522 average", "setting": "[1]", "result": 4.993},
      {"measurement": "Gene expression NM_008935 average", "setting": "[1]", "result": "−1.382"},
      {"measurement": "Gene expression NM_009897 average", "setting": "[1]", "result": 3.619},
      {"measurement": "Gene expression NM_011075 average", "setting": "[1]", "result": 2.401},
      {"measurement": "Gene expression NM_011176 average", "setting": "[1]", "result": 1.597},
      {"measurement": "Gene expression NM_011316 average", "setting": "[1]", "result": 2.0898},
      {"measurement": "Gene expression NM_012006 average", "setting": "[1]", "result": 1.6671},
      {"measurement": "Gene expression NM_013642 average", "setting": "[1]", "result": 0.3461},
      {"measurement": "Gene expression NM_013738 average", "setting": "[1]", "result": 1.562},
      {"measurement": "Gene expression NM_013929 average", "setting": "[1]", "result": 1.891},
      {"measurement": "Gene expression NM_018881 average", "setting": "[1]", "result": 0.9481},
      {"measurement": "Gene expression NM_019738 average", "setting": "[1]", "result": "−2.9169"},
      {"measurement": "Gene expression NM_030697 average", "setting": "[1]", "result": 2.5583},
      {"measurement": "Gene expression NM_053122 average", "setting": "[1]", "result": "−2.3248"},
      {"measurement": "Gene expression NM_134147 average", "setting": "[1]", "result": "−1.579"},
      {"measurement": "Gene expression NM_134188 average", "setting": "[1]", "result": "−0.6378"},
      {"measurement": "Gene expression X62701 average", "setting": "[1]", "result": 0.07157},
      {"measurement": "score 1700007K13RIK", "setting": "[2]; [3]", "result": 1},
      {"measurement": "score DDIT4L", "setting": "[2]; [3]", "result": 0},
      {"measurement": "score GAS2L3", "setting": "[2]; [3]", "result": 0},
      {"measurement": "score SPC25", "setting": "[2]; [3]", "result": 0},
      {"measurement": "Ratios of gene expression treated/untreated 1700007K13RIK", "setting": "[2]; [4]", "result": 2.141},
      {"measurement": "Ratios of gene expression treated/untreated DDIT4L", "setting": "[2]; [4]", "result": 0.7662},
      {"measurement": "Ratios of gene expression treated/untreated GAS2L3", "setting": "[2]; [4]", "result": 0.2166},
      {"measurement": "Ratios of gene expression treated/untreated SPC25", "setting": "[2]; [4]", "result": 0.8368},
      {"measurement": "Total score", "setting": "[2]; sum of scores for four genes, 0 = not genotoxic, 1, 2, 3 or 4 = genotoxic", "result": 1}
    ]}
  ]
}
